{"source": "PubChem BioAssay (NCI)", "test_in_all_cases": "NCI tumour cell line growth inhibition, 48 h", "key": {"786-0 renal": {"system": "786-0 renal"}, "A498 renal": {"system": "A498 renal"}, "A549 NSCLC": {"system": "A549 NSCLC"}, "ACHN renal": {"system": "ACHN renal"}, "BT-549 breast": {"system": "BT-549 breast"}, "CAKI-1 renal": {"system": "CAKI-1 renal"}, "CCRF-CEM leukemia": {"system": "CCRF-CEM leukemia"}, "COLO 205 colon": {"system": "COLO 205 colon"}, "DLD-1 colon": {"system": "DLD-1 colon"}, "DMS 114 small cell lung": {"system": "DMS 114 small cell lung"}, "DMS 273 small cell lung": {"system": "DMS 273 small cell lung"}, "DU-145 prostate": {"system": "DU-145 prostate"}, "EKVX NSCLC": {"system": "EKVX NSCLC"}, "HCC-2998 colon": {"system": "HCC-2998 colon"}, "HCT-116 colon": {"system": "HCT-116 colon"}, "HCT-15 colon": {"system": "HCT-15 colon"}, "HL-60(TB) leukemia": {"system": "HL-60(TB) leukemia"}, "HOP-18 NSCLC": {"system": "HOP-18 NSCLC"}, "HOP-62 NSCLC": {"system": "HOP-62 NSCLC"}, "HOP-92 NSCLC": {"system": "HOP-92 NSCLC"}, "HS 578T breast": {"system": "HS 578T breast"}, "HT29 colon": {"system": "HT29 colon"}, "IGROV1 ovarian": {"system": "IGROV1 ovarian"}, "K-562 leukemia": {"system": "K-562 leukemia"}, "KM12 colon": {"system": "KM12 colon"}, "KM20L2 colon": {"system": "KM20L2 colon"}, "LOX IMVI melanoma": {"system": "LOX IMVI melanoma"}, "LXFL 529 NSCLC": {"system": "LXFL 529 NSCLC"}, "M14 melanoma": {"system": "M14 melanoma"}, "M19-MEL melanoma": {"system": "M19-MEL melanoma"}, "MALME-3M melanoma": {"system": "MALME-3M melanoma"}, "MCF7 breast": {"system": "MCF7 breast"}, "MDA-MB-231 breast": {"system": "MDA-MB-231 breast"}, "MDA-MB-435": {"system": "MDA-MB-435"}, "MDA-N": {"system": "MDA-N"}, "MOLT-4 leukemia": {"system": "MOLT-4 leukemia"}, "NCI-H226 lung": {"system": "NCI-H226 lung"}, "NCI-H23 lung": {"system": "NCI-H23 lung"}, "NCI-H460 lung": {"system": "NCI-H460 lung"}, "NCI-H522 lung": {"system": "NCI-H522 lung"}, "NCI/ADR-RES ovarian": {"system": "NCI/ADR-RES ovarian"}, "OVCAR-3 ovarian": {"system": "OVCAR-3 ovarian"}, "OVCAR-4 ovarian": {"system": "OVCAR-4 ovarian"}, "OVCAR-5 ovarian": {"system": "OVCAR-5 ovarian"}, "OVCAR-8 ovarian": {"system": "OVCAR-8 ovarian"}, "PC-3 prostate": {"system": "PC-3 prostate"}, "RPMI-8226 leukemia": {"system": "RPMI-8226 leukemia"}, "RXF 393 renal": {"system": "RXF 393 renal"}, "RXF-631 renal": {"system": "RXF-631 renal"}, "SF-268 CNS": {"system": "SF-268 CNS"}, "SF-295 CNS": {"system": "SF-295 CNS"}, "SF-539 CNS": {"system": "SF-539 CNS"}, "SK-MEL-2 melanoma": {"system": "SK-MEL-2 melanoma"}, "SK-MEL-28 melanoma": {"system": "SK-MEL-28 melanoma"}, "SK-MEL-5 melanoma": {"system": "SK-MEL-5 melanoma"}, "SK-OV-3 ovarian": {"system": "SK-OV-3 ovarian"}, "SN12C renal": {"system": "SN12C renal"}, "SNB-19 CNS": {"system": "SNB-19 CNS"}, "SNB-75 CNS": {"system": "SNB-75 CNS"}, "SNB-78 CNS": {"system": "SNB-78 CNS"}, "SR leukemia": {"system": "SR leukemia"}, "SW-620 colon": {"system": "SW-620 colon"}, "T-47D breast": {"system": "T-47D breast"}, "TK-10 renal": {"system": "TK-10 renal"}, "U251 CNS": {"system": "U251 CNS"}, "UACC-257 melanoma": {"system": "UACC-257 melanoma"}, "UACC-62 melanoma": {"system": "UACC-62 melanoma"}, "UO-31 renal": {"system": "UO-31 renal"}, "XF 498 CNS": {"system": "XF 498 CNS"}}, "note": "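Interpolation was linear, between the two tested concentrations surrounding the appropriate level; five concentrations were tested over 48 hours in 96-well plates. TGI: concentration producing complete growth inhibition.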"}
{"smiles": "CN1C(c2ccccc2)CC(=NOCc2ccccc2)CC1c1ccccc1", "note": "(centres undefined)", "values": [{"measurement": "TGI", "setting": "786-0 renal", "value": 53.7, "unit": "µM"}, {"measurement": "TGI", "setting": "A498 renal", "value": 68.8, "unit": "µM"}, {"measurement": "TGI", "setting": "A549 NSCLC", "value": 43, "unit": "µM"}, {"measurement": "TGI", "setting": "ACHN renal", "value": 69.1, "unit": "µM"}, {"measurement": "TGI", "setting": "BT-549 breast", "value": 30.6, "unit": "µM"}, {"measurement": "TGI", "setting": "CAKI-1 renal", "value": "> 80", "unit": "µM"}, {"measurement": "TGI", "setting": "CCRF-CEM leukemia", "value": 70.8, "unit": "µM"}, {"measurement": "TGI", "setting": "COLO 205 colon", "value": 88.6, "unit": "µM"}, {"measurement": "TGI", "setting": "DLD-1 colon", "value": "> 100", "unit": "µM"}, {"measurement": "TGI", "setting": "DMS 114 small cell lung", "value": 33.1, "unit": "µM"}, {"measurement": "TGI", "setting": "DMS 273 small cell lung", "value": "> 100", "unit": "µM"}, {"measurement": "TGI", "setting": "DU-145 prostate", "value": "> 100", "unit": "µM"}, {"measurement": "TGI", "setting": "EKVX NSCLC", "value": "> 69.3", "unit": "µM"}, {"measurement": "TGI", "setting": "HCC-2998 colon", "value": "> 100", "unit": "µM"}, {"measurement": "TGI", "setting": "HCT-116 colon", "value": 37.6, "unit": "µM"}, {"measurement": "TGI", "setting": "HCT-15 colon", "value": 49.2, "unit": "µM"}, {"measurement": "TGI", "setting": "HL-60(TB) leukemia", "value": 48.8, "unit": "µM"}, {"measurement": "TGI", "setting": "HOP-18 NSCLC", "value": "> 100", "unit": "µM"}, {"measurement": "TGI", "setting": "HOP-62 NSCLC", "value": "> 73.3", "unit": "µM"}, {"measurement": "TGI", "setting": "HOP-92 NSCLC", "value": 81, "unit": "µM"}, {"measurement": "TGI", "setting": "HS 578T breast", "value": "> 73.3", "unit": "µM"}, {"measurement": "TGI", "setting": "HT29 colon", "value": 62.2, "unit": "µM"}, {"measurement": "TGI", "setting": "IGROV1 ovarian", "value": 62.1, "unit": "µM"}, {"measurement": "TGI", "setting": "K-562 leukemia", "value": 44.3, "unit": "µM"}, {"measurement": "TGI", "setting": "KM12 colon", "value": 47.9, "unit": "µM"}, {"measurement": "TGI", "setting": "KM20L2 colon", "value": "> 100", "unit": "µM"}, {"measurement": "TGI", "setting": "LOX IMVI melanoma", "value": 29.9, "unit": "µM"}, {"measurement": "TGI", "setting": "LXFL 529 NSCLC", "value": 30.8, "unit": "µM"}, {"measurement": "TGI", "setting": "M14 melanoma", "value": "> 78", "unit": "µM"}, {"measurement": "TGI", "setting": "M19-MEL melanoma", "value": "> 100", "unit": "µM"}, {"measurement": "TGI", "setting": "MALME-3M melanoma", "value": "> 87.8", "unit": "µM"}, {"measurement": "TGI", "setting": "MCF7 breast", "value": "> 56.8", "unit": "µM"}, {"measurement": "TGI", "setting": "MDA-MB-231 breast", "value": "> 100", "unit": "µM"}, {"measurement": "TGI", "setting": "MDA-MB-435", "value": 39.2, "unit": "µM"}, {"measurement": "TGI", "setting": "MDA-N", "value": "> 56.3", "unit": "µM"}, {"measurement": "TGI", "setting": "MOLT-4 leukemia", "value": 71.2, "unit": "µM"}, {"measurement": "TGI", "setting": "NCI-H226 lung", "value": 84.8, "unit": "µM"}, {"measurement": "TGI", "setting": "NCI-H23 lung", "value": 71.5, "unit": "µM"}, {"measurement": "TGI", "setting": "NCI-H460 lung", "value": 39.9, "unit": "µM"}, {"measurement": "TGI", "setting": "NCI-H522 lung", "value": 56, "unit": "µM"}, {"measurement": "TGI", "setting": "NCI/ADR-RES ovarian", "value": 42.4, "unit": "µM"}, {"measurement": "TGI", "setting": "OVCAR-3 ovarian", "value": 58.7, "unit": "µM"}, {"measurement": "TGI", "setting": "OVCAR-4 ovarian", "value": 48.9, "unit": "µM"}, {"measurement": "TGI", "setting": "OVCAR-5 ovarian", "value": "> 100", "unit": "µM"}, {"measurement": "TGI", "setting": "OVCAR-8 ovarian", "value": 44.9, "unit": "µM"}, {"measurement": "TGI", "setting": "PC-3 prostate", "value": "> 66.3", "unit": "µM"}, {"measurement": "TGI", "setting": "RPMI-8226 leukemia", "value": "> 100", "unit": "µM"}, {"measurement": "TGI", "setting": "RXF 393 renal", "value": "> 84.7", "unit": "µM"}, {"measurement": "TGI", "setting": "RXF-631 renal", "value": "> 61.9", "unit": "µM"}, {"measurement": "TGI", "setting": "SF-268 CNS", "value": 50.4, "unit": "µM"}, {"measurement": "TGI", "setting": "SF-295 CNS", "value": "> 74.8", "unit": "µM"}, {"measurement": "TGI", "setting": "SF-539 CNS", "value": "> 75.6", "unit": "µM"}, {"measurement": "TGI", "setting": "SK-MEL-2 melanoma", "value": "> 95.4", "unit": "µM"}, {"measurement": "TGI", "setting": "SK-MEL-28 melanoma", "value": "> 76.3", "unit": "µM"}, {"measurement": "TGI", "setting": "SK-MEL-5 melanoma", "value": 70.6, "unit": "µM"}, {"measurement": "TGI", "setting": "SK-OV-3 ovarian", "value": "> 96.9", "unit": "µM"}, {"measurement": "TGI", "setting": "SN12C renal", "value": 62, "unit": "µM"}, {"measurement": "TGI", "setting": "SNB-19 CNS", "value": "> 56.2", "unit": "µM"}, {"measurement": "TGI", "setting": "SNB-75 CNS", "value": 62.1, "unit": "µM"}, {"measurement": "TGI", "setting": "SNB-78 CNS", "value": "> 100", "unit": "µM"}, {"measurement": "TGI", "setting": "SR leukemia", "value": 87.1, "unit": "µM"}, {"measurement": "TGI", "setting": "SW-620 colon", "value": "> 75.4", "unit": "µM"}, {"measurement": "TGI", "setting": "T-47D breast", "value": 36, "unit": "µM"}, {"measurement": "TGI", "setting": "TK-10 renal", "value": 70.9, "unit": "µM"}, {"measurement": "TGI", "setting": "U251 CNS", "value": 55.2, "unit": "µM"}, {"measurement": "TGI", "setting": "UACC-257 melanoma", "value": "> 97", "unit": "µM"}, {"measurement": "TGI", "setting": "UACC-62 melanoma", "value": "> 76.3", "unit": "µM"}, {"measurement": "TGI", "setting": "UO-31 renal", "value": "> 73.7", "unit": "µM"}, {"measurement": "TGI", "setting": "XF 498 CNS", "value": "> 100", "unit": "µM"}]}
